# Measurements: publication PMC6160049 (PLoS ONE, 2018)
# How the values were obtained:
# in vitro = assay: in vitro
# Excerpt: (§1) Female Sprague Dawley rats were purchased from Charles River (QC, Canada). Rats were housed at the Laurentian University Animal Care Facility and supplied with food and water ad libitum. All experimental protocols were approved by the Health Sciences North Research Institute biosafety committee and the Laurentian University animal care committee. Blood was collected from rats under a surgical plane of anesthesia using isoflurane via cardiac puncture. Rats were then euthanized by excess isoflurane in addition to the severing of the descending aorta and cutting of the diaphragm. Blood was immediately mixed with an ethylenediaminetetraacetic acid solution (Fisher Scientific, Fairlawn NJ,0.1 M, 5 mM final concentration) and stored on ice until being centrifuged at 2,100 x G and 4 °C for 10 minutes. The top plasma layer was removed, aliquoted and stored at -80 °C.
# (§2) Dynantin samples were analyzed at a constant solvent flow rate of 0.7 mL/min at 35 °C using a binary gradient (Table 1). Solvent A consisted of a 25% solution of acetonitrile (HPLC grade Fisher Scientific) in ddH2O (0.2 μm filtered) and solvent B consisted of acetonitrile, with each solvent containing 0.1% trifluoroacetic acid (v/v, protein sequencing grade, Sigma Aldrich, Fairlawn NJ).
# (§3) MDP samples were analyzed at a constant solvent flow rate of 1.0 mL/min at 35 °C using a binary gradient (Table 2). Solvent A consisted of ddH2O (0.2 μm filtered) and solvent B consisted of methanol (MeOH) (HPLC grade, Fisher Scientific, Fairlawn NJ), with each solvent containing 0.1% formic acid (v/v, LC/MS grade, Fisher Scientific).
# [1] = Peptide with mannose lipid (ML-C14) plasma stability analysis; details: for dynantin remaining in rat plasma / dynantin degradation in rat plasma: 37 °C, RP-HPLC, UV 210 nm; for dynantin remaining in rat plasma: relative to T-zero; for dynantin degradation in rat plasma: 48 h
# Excerpt: as §1, §2, §3
# Peptide stability in combination with ML-C14 was investigated using a modified version of the above noted procedure. Aliquots of dynantin or MDP were first combined with varying amounts of ML-C14 (in THF, 20 μL total addition), and then thoroughly mixed before the addition of thawed rat plasma (88 μL). A control sample was also prepared by combining each peptide with THF alone (20 μL) and plasma (88 μL). Samples were incubated at 37 °C in a heating mantle for varying lengths of time before being stored at -80 °C. For HPLC analysis, samples were thawed, thoroughly mixed, diluted in MeOH to destroy liposome particles (1/10 for dynantin, 1/5 for MDP), and solids pelleted by centrifugation at 10,000 rpm and 20 °C for 5 min. The supernatants were carefully removed for analysis (8 μL injections, in duplicate). Stability is represented as the percentage of peptide remaining relative to the amount determined at T-zero.
# thawed rat plasma = details: Female Sprague Dawley rats, 37 °C, up to 24 hours
compound,measurement,setting,value
"CC(=O)N[C@H]1C(O)O[C@H](CO)[C@@H](O)[C@@H]1O[C@H](C)C(=O)N[C@@H](C)C(=O)N[C@H](CCC(=O)O)C(N)=O (stereo partly shown) [MDP, muramyl dipeptide]",degradation of MDP in rat plasma,in vitro,completely degraded
same,metabolised at 12 h,"in vitro; female, Sprague Dawley, rat, plasma",~60%
same,degradation of MDP in rat plasma,[1],Complete degradation
CC[C@H](C)[C@H](NC(=O)[C@H](CCCN=C(N)N)NC(=O)[C@H](CCCN=C(N)N)NC(=O)[C@H](CC(C)C)NC(=O)[C@H](Cc1ccccc1)NC(=O)CNC(=O)CNC(=O)[C@@H](C)Cc1c(C)cc(O)cc1C)C(=O)N[C@@H](CCCN=C(N)N)C(=O)N1CCC[C@H]1C(=O)N[C@@H](CCCCN)C(N)=O [dynantin],degradation of dynantin in rat plasma,"in vitro; peptide alone, EDTA rat plasma, 37 °C, 12 h, RP-HPLC, UV 210 nm, relative to T-zero, three experiments",complete dynantin degradation
same,dynantin remaining in rat plasma,"[1]; with ML-C14, peptide:glycolipid 1:4, EDTA rat plasma 88 μL, 12 h, diluted 1/10 in MeOH, mean ± SEM of three experiments",21 ± 4%
same,dynantin remaining in rat plasma,"[1]; with ML-C14, peptide:glycolipid 1:4, rat plasma, 24 h",no detectable peptide
same,dynantin remaining in rat plasma,"[1]; with ML-C14, peptide:glycolipid 1:8, rat plasma, 12 h, mean ± SEM of three experiments",62 ± 4%
same,dynantin remaining in rat plasma,"[1]; with ML-C14, peptide:glycolipid 1:8, rat plasma, 24 h, mean ± SEM of three experiments",20 ± 3%
same,dynantin degradation in rat plasma,"[1]; with ML-C14, peptide:glycolipid 1:8, rat plasma",completely degraded
same,dynantin remaining in rat plasma,"[1]; with ML-C14, peptide:glycolipid 1:10, rat plasma, 12 h, mean ± SEM of three experiments",66 ± 6%
same,dynantin remaining in rat plasma,"[1]; with ML-C14, peptide:glycolipid 1:10, rat plasma, 24 h, mean ± SEM of three experiments",19 ± 4%
same,dynantin degradation in rat plasma,"[1]; with ML-C14, peptide:glycolipid 1:10, rat plasma",completely degraded
(2S)-Mdp-G-G-F-L-R-R-I-R-P-K-NH2,cleaved bond,thawed rat plasma,"L-R and R-R, major and R-I"
